From publication PMC4747340, “A new class of small molecule estrogen receptor-alpha antagonists that overcome anti-estrogen resistance” (Oncotarget, 2015)
Where “and” joins values, the source holds several entries; their conditions need not be identical. Equal entries are not always repeated. Where two headings read alike, the source gives them in different places.

How the values were obtained:
ER/ERE complex = target: T1, ER/ERE complex (Homo sapiens, UniProt P03372); assay: EMSA and supershift assays of ER binding to consensus ERE, MCF-7 nuclear extracts; assay type: biochemical; settings: for ER/ERE complex in EMSA, compound added directly to nuclear extracts: 1-5 μM added to MCF-7 nuclear extracts, compared with pre-incubation of cells; for interaction of ER with a model ERE oligonucleotide (EMSA, supershift): MCF-7 cells
T1 construct: MCF-7 cells in 24-well dishes were transfected overnight with the ERE-TK-Luc reporter plasmid; endogenous in cells; host or cells: MCF-7
T1 sequence (P03372 1-595): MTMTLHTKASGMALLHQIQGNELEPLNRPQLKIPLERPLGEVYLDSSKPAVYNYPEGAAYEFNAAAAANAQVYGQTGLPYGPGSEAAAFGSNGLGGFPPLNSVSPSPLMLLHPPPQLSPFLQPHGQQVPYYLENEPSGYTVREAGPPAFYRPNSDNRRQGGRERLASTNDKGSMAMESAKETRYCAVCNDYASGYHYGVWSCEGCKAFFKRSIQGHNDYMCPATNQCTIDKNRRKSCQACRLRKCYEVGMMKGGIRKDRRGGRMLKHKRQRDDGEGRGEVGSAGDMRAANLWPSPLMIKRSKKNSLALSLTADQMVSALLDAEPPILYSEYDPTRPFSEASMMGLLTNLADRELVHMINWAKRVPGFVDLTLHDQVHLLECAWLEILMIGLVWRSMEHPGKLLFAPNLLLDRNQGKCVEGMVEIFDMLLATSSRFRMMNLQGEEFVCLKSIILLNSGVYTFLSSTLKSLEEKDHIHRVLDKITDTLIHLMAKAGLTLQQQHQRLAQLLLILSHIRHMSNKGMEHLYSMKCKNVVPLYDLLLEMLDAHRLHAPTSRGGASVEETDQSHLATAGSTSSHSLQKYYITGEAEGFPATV
Description: After the 24-hr incubation, the cells were harvested, nuclear extracts were prepared, and the extracts were reacted with labeled “hot” ERE and an excess of unlabeled “cold” ERE, as indicated, prior to electrophoresis. In panel B, the experiment was performed similarly except that an anti-ER antibody was added to generate a “supershift”. C., D. Experiments were performed similarly to those above, except that different concentrations of compound (as indicated) were added directly to the reaction mixture containing nuclear extract and were not pre-incubated with whole cells. […] E., F. These experiments were performed similarly to those in C and D, except that anti-ER antibody was added to the reaction mixture to reveal “supershifted” bands. […] The data shown in each panel are representative of three independent experiments.
Double-stranded oligonucleotides containing a consensus ERE were obtained from Santa Cruz Biotechnology (sc-2858). Sequences of the oligonucleotides were: sense 5′-[…]-3′ and antisense: 3′-[…]-5′. Oligonucleotides were 3′-end-labeled using a Biotin Kit (Thermo Scientific, Rockford, IL). DNA binding reactions were carried out using nuclear extracts of MCF-7 cells that were treated ± E2 (10 nM) and ± the indicated compound for 24-hr. Treated cells were harvested and nuclear extracts were prepared using the NE-PER Nuclear and Cytoplasmic Extraction Reagents (Thermo Scientific). Aliquots of nuclear extract protein (2 μg) were incubated with gel-shift binding buffer (LightShift Chemiluminescent EMSA Kit, Thermo Scientific) for 30 min at 25°C. After incubation, 40 fmol of biotin-labeled ERE-containing oligonucleotides were added, and the mixture was re-incubated for 30 min at 25°C. Reaction products were loaded electrophoresed on a 6% DNA retardation gel (Invitrogen) and transferred onto a nylon membrane. Biotin-labeled DNA was detected using the Chemiluminescent Nucleic Acid Detection Module (Thermo Scientific). To test the specificity of binding, a 40-fold excess of unlabeled (“cold”) oligonucleotide was added to one of the reactions along with the biotin-labeled (“hot”) oligonucleotide. Note: In some experiments, the compound was added to the reaction mixture after the nuclear extract was prepared. Supershift assays were performed as above, except that before addition of the hot ERE oligonucleotide, nuclear extracts were incubated with 2-μg of anti-ER IgG (rabbit polyclonal, HC-20, Santa Cruz) for 30 min at 25°C.

cathepsin D = assay: Western blotting of cathepsin D in LCC9 cells; assay type: cell-based, human; settings: LCC9, 24-hr exposure
Description: MCF-7 cells in DMEM plus 5% CSS were subjected to the indicated treatment(s) for 24-hr and then harvested for Western blotting to detect cathepsin D or actin (control for loading and transfer). B., D. LCC9 cells were treated with vehicle only (DMSO) or the indicated compound for 24-hr and then harvested for Western blotting for cathepsin D and actin. The data shown in each panel are representative of three independent experiments.
After the indicated cell treatment(s), the cells were harvested, and whole-cell lysates were prepared using RIPA buffer (Santa Cruz). Equal aliquots of whole-cell protein (either 100 μg unprecipitated whole-cell lysate or one half of the precipitated protein from 500-μg whole-cell lysate) were electrophoresed on 4-12% SDS-polyacrylamide gradient gels, transferred to nitrocellulose membranes (Millipore, Bedford, MA), and blotted using primary antibodies against BRCA1 (C-20, rabbit polyclonal, 1:200 dilution; Santa Cruz), cathepsin D (R-20, goat polyclonal, 1:300; Santa Cruz), ER (F10, mouse monoclonal, 1:500; Santa Cruz), or actin (goat polyclonal, sc-1615, 1:400; Santa Cruz). […]

[1] = target: T2, estrogen receptor-alpha (ER) (Homo sapiens, UniProt P03372); assay: ER activity, ERE-TK-Luc reporter, in MCF-7 cells; assay type: cell-based; parameters: MCF-7 cells in 24-well dishes were transfected overnight with the ERE-TK-Luc reporter plasmid; endogenous in cells; host or cells: MCF-7; settings: for IC50: read-out: IC50 for inhibition of E2-stimulated ER activity
T2 sequence (P03372 1-595): T1 sequence (P03372 1-595)
Description: For MCF-7, luciferase activity is expressed as a fold-change relative to the no E2 control. For LCC9, luciferase activity is expressed relative to the control without the reporter present. Values plotted are means ± SEMs of four replicate wells. The data shown in each panel are representative of three independent experiments.
The cells were then treated ± 17β-estradiol (E2, 10 nM) and with the indicated compound (@ 1 μM or 20 μM) or vehicle only (DMSO) for 24 hr and assayed for luciferase activity. Luciferase activity is expressed as a fold-change relative to the no E2 control. The data shown are representative of three independent experiments.
Subconfluent cells in 24-well dishes were transfected overnight with 0.25 μg of each indicated vector plus the ERE-TK-Luc reporter in serum-free DMEM containing Lipofectamine2000 (Life Technologies, Washington, DC). Total transfected DNA was kept constant by addition of control vector. The cells were washed, incubated in phenol red-free DMEM containing 5% charcoal-stripped serum (obtained from the Tissue Culture Shared Resource) (0.2 ml/well) ± E2 (10 nM) ± the indicated compound for 24-hr, and harvested for luciferase assays. For each assay condition was tested in quadrupicate. To monitor the transfection efficiency, cultures were co-transfected with plasmid pRSV-β-gal (Promega, Madison, WI) to visualize transfected cells by X-gal staining.

O=C(c1cc(Br)ccc1O)c1cc(Br)ccc1O [4631-P/1]
ER/ERE complex in EMSA, compound added directly to nuclear extracts (ER/ERE complex): greater effect | interaction of ER with a model ERE oligonucleotide (EMSA, supershift) (ER/ERE complex): disrupt the interaction of ER with a model ERE oligonucleotide | ER/ERE complex in EMSA, cells pre-incubated with compound (ER/ERE complex; MCF-7 pre-incubated with E2 10 nM and compound 1 or 20 μM for 24 hr): dose-dependent reduction of the ER/ERE complex | constitutive cathepsin D levels in LCC9 (cathepsin D): decreased | inhibition at 1 µM ([1]; MCF7, MCF-7, E2 10 nM, compound 1 μM, 24 hr, read-out: inhibition of E2-stimulated ER activity at 1 μM): ≥ 50% | IC50 ([1]; MCF-7, E2 10 nM, 24 hr): ≤ 1000 nM

O=C(CC(c1ccccc1)N1CCCCC1)c1ccccc1 (centres unmarked) [35446-L/1, 1,3-diphenyl-3-(piperidin-1-yl)propan-1-one]
ER/ERE complex in EMSA, compound added directly to nuclear extracts (ER/ERE complex): greater effect | interaction of ER with a model ERE oligonucleotide (EMSA, supershift) (ER/ERE complex): disrupt the interaction of ER with a model ERE oligonucleotide | constitutive cathepsin D levels in LCC9 (cathepsin D): decreased | inhibition at 1 µM ([1]; MCF7, read-out: inhibition of E2-stimulated ER activity at 1 μM): ≥ 50% | IC50 ([1]; MCF-7, E2 10 nM, 24 hr): ≤ 1000 nM and 800 nM
